One test deals with MDA-MB-231 (breast). The test is described as follows: Cell growth inhibition assay (SRB), MDA-MB-231. In kind it is cell-based, human. The conditions noted are these: Homo sapiens; SRB method, 96 hours incubation, MDA-MB-231 (breast); read-out: IC50, MDA-MB-231. Put shortly:
(§1)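 96 h compound exposure, 37 °C/5% CO2, triplicates; fix 10% TCA 1 h 4 °C; stain 0.4% SRB 30 min; solubilize 10 mM Tris; OD530. Cell number from standard curves, % survival vs DMSO, IC50 non-linear regression.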
Background: The SRB assay estimates cell density from bound dye.

In another test the test system is UMRC2 (kidney). The test is described as follows: Cell growth inhibition assay (SRB), UMRC2. The class given is cell-based, human. Conditions: Homo sapiens; SRB method, 96 hours incubation, UMRC2 (kidney); read-out: IC50, UMRC2. Put shortly:
as §1

Another test deals with PANC-1 (pancreas). The test can be described thus: Cell growth inhibition assay (SRB), PANC-1. In kind it is cell-based, human. Conditions: Homo sapiens; SRB method, 96 hours incubation, PANC-1 (pancreas); read-out: IC50, PANC-1. Put shortly: as §1
The test system of the next test is MKN-45 (stomach). The test is described as follows: Cell growth inhibition assay (SRB), MKN-45. The class given is cell-based. The conditions noted are these: Homo sapiens; SRB method, 96 hours incubation, MKN-45 (stomach); read-out: IC50, MKN-45. How it is done:
(§2) OVCAR-3, MCF-7, PC3, HepG2, A549, HT-29 and MKN-45 were grown in RPMI1640 medium (Invitrogen, Carlsbad, Calif.) supplemented with 10% fetal bovine serum (‘FBS’), 1 mM sodium pyruvate, 10 mM HEPES and 100 U/ml penicillin and […] streptomycin (‘P/S’). MDA-MB-231, HCT116, UMRC2, Caki-1, PANC-1 and HEK293 cells were maintained in Dulbecco's modified Eagle's medium (‘DMEM’, Invitrogen) supplemented with 10% FBS, P/S, 10 mM HEPES and 2 mM L-glutamine. HUVEC was maintained in M199 supplemented with basic fibroblast growth factor (‘bFGF’) […] and FBS 20%. All cells were incubated at 37° C. under humidified 5% CO2.
(§3) The growth inhibition of the substituted quinoxalin-piperazine compounds against a variety of human tumor cells was evaluated. The relative importance of particular substituent groups on the compounds was also studied. The substituted piperazine derivative compounds, prepared as described above, were tested, along with DMSO as a control.
(§4) The growth inhibition assay of various compounds against human tumor cell lines was performed using the Sulforhodamine B (‘SRB’) method (Skehan et al., J. National Cancer Institute, 1990, 82, 1107-1112). […] Triplicate wells were used for each treatment. The cells were incubated with the various compounds for 96 hours at 37° C. in a humidified 5% CO2 atmosphere. After 96-hour incubation, cells were fixed with 10% trichloroacetic acid (‘TCA’), incubated for 1 hour at 4° C., and washed 3 times with tap water. Subsequently cells were stained with 0.4% sulforhodamine B in 1% acetic acid for 30 minutes, washed 4 times with 1% acetic acid, and air-dried again. After 5 minutes agitation in 10 mM Tris solution, the absorbance of each well was measured at 530 nm using Benchmark Plus Microplate reader (Bio-Rad Laboratories, Hercules, Calif.).
(§5) To translate the OD530 values into the number of live cells in each well, the OD530 values were compared to those on standard OD530-versus-cell number curves generated for each cell line. The percent survival was calculated using the formula: % Survival=live cell number[test]/live cell number[control]×100
(§6) The IC50 values were calculated by non-linear regression analysis.

The next test deals with HepG2 (liver). The test is described as follows: Cell growth inhibition assay (SRB), HepG2. The class given is cell-based. The conditions noted are these: Homo sapiens; SRB method, 96 hours incubation, HepG2 (liver); read-out: IC50, HepG2. How it is done:
as §2, §3, §4, §5, §6

A further test has as its system HT-29 (colon). The test is described as follows: Cell growth inhibition assay (SRB), HT-29. The class given is cell-based. Conditions: Homo sapiens; SRB method, 96 hours incubation, HT-29 (colon); read-out: IC50, HT-29. The method, then:
as §2, §3, §4, §5, §6

For another test, the system named is HCT116 (colon). The test can be described thus: Cell growth inhibition assay (SRB), HCT116. Conditions: Homo sapiens, HCT-116; SRB method, 96 hours incubation, HCT116 (colon); read-out: IC50, HCT116. In kind it is cell-based. The method, then: as §2, §3, §4, §5, §6
Another test relates to PC3 (prostate). The test can be described thus: Cell growth inhibition assay (SRB), PC3. The conditions noted are these: Homo sapiens; SRB method, 96 hours incubation, PC3 (prostate); read-out: IC50, PC3. In kind it is cell-based. The method, then: as §2, §3, §4, §5, §6
The subject of a further test is OVCAR-3 (ovary). The test is described as follows: Cell growth inhibition assay (SRB), OVCAR-3. The class given is cell-based. The conditions noted are these: Homo sapiens; SRB method, 96 hours incubation, OVCAR-3 (ovary); read-out: IC50, OVCAR-3. How it is done:
as §2, §3, §4, §5, §6

For test [1], the system named is MCF-7 (breast, hormone-dependent). The test is described as follows: Cell growth inhibition assay (SRB), MCF-7. Conditions: Homo sapiens, MCF7; SRB method, 96 hours incubation, MCF-7 (breast, hormone-dependent); read-out: IC50, MCF-7. In kind it is cell-based. The method, then: as §2, §3, §4, §5, §6
A further test deals with Caki-1 (kidney). The test can be described thus: Cell growth inhibition assay (SRB), Caki-1. In kind it is cell-based. The conditions noted are these: Homo sapiens; SRB method, 96 hours incubation, Caki-1 (kidney); read-out: IC50, Caki-1. The method, then: as §2, §3, §4, §5, §6
The next test concerns A549 (lung). The test is described as follows: Cell growth inhibition assay (SRB), A549. The class given is cell-based. Conditions: Homo sapiens; SRB method, 96 hours incubation, A549 (lung); read-out: IC50, A549. How it is done:
as §2, §3, §4, §5, §6

The subject of test [2] is HEK293 (human embryonic kidney). The test is described as follows: Cell growth inhibition assay (SRB), HEK293. In kind it is cell-based. Conditions: SRB method, 96 hours incubation, HEK293 (human embryonic kidney); read-out: IC50, HEK293. The method, then:
as §2, §3, §4, §5, §6

Test [3] has as its system Huvec (human umbilical vein endothelial cells). The test is described as follows: Cell growth inhibition assay (SRB), Huvec. In kind it is cell-based. The conditions noted are these: SRB method, 96 hours incubation, read-out: IC50, Huvec. The method, then: as §2, §3, §4, §5, §6
A further test deals with SK-OV-3 (ovary). The test can be described thus: Cell growth inhibition assay (SRB), SK-OV-3. In kind it is cell-based. Conditions: Homo sapiens; SRB method, 96 hours incubation, SK-OV-3 (ovary); read-out: IC50, SK-OV-3. How it is done:
as §2, §3, §4, §5, §6

As a reminder, the IC50 is the concentration that inhibits the measured activity by half. In the case of `COc1nc2cc(C)ccc2nc1NC(=O)N1CCN(c2cc(C)cc(C)c2)CC1` [Compound 136, 1-[(3-Methoxy-6-methylquinoxalin-2-yl)aminocarbonyl]-4-(3,5-dimethylphenyl)piperazine], the IC50 in the test with MDA-MB-231 (breast) was 45 nM; in the test with UMRC2 (kidney), 57 nM; in the test on PANC-1 (pancreas), 280 nM; in the test on MKN-45 (stomach), 180 nM; in the test on HepG2 (liver) it was 190 nM; with HT-29 (colon), 240 nM. Besides, the IC50 in the test with HCT116 (colon) turned out to be 200 nM; with PC3 (prostate) it was 250 nM; in the test on OVCAR-3 (ovary) it was 140 nM; in test [1], 210 nM; in the test on Caki-1 (kidney) it was 130 nM; in the test on A549 (lung), 210 nM. For the same compound, the figures for the IC50 (in test [2]; in [3]; in the test on SK-OV-3 (ovary)) were 240 nM, 150 nM and 100 nM, respectively.

As to `COc1nc2cc(Cl)ccc2nc1NC(=O)N1CCN(c2cc(C)cc(C)c2)CC1` [Compound 115, 1-[(6-Chloro-3-methoxyquinoxalin-2-yl)aminocarbonyl]-4-(3,5-dimethylphenyl)piperazine], the IC50 in the test with MDA-MB-231 (breast) stood at 130 nM; in the test on UMRC2 (kidney) it was 110 nM; in the test with PANC-1 (pancreas) it was 170 nM; in the test with MKN-45 (stomach) it was 430 nM; with HepG2 (liver), 410 nM; in the test on HT-29 (colon), 460 nM. Moreover, the IC50 in the test on HCT116 (colon) worked out at 450 nM; in the test on PC3 (prostate) it was 620 nM; with OVCAR-3 (ovary), 310 nM; in [1], 450 nM; with Caki-1 (kidney) it was 310 nM; in the test on A549 (lung), 590 nM. Also, the concentration for half-maximal inhibition (IC50) in test [2] is 500 nM; in [3], 520 nM; in the test on SK-OV-3 (ovary), 500 nM.

Source of the values: patent publication US8598173B2, “1-[(6,7-substituted alkoxyquinoxalinyl)aminocarbonyl]-4-(hetero)arylpiperazine derivatives for treating tumors” (Korea Research Institute of Chemical Technology, priority 2004, dated 2013).
